From US6737383B1, “Herbicidal oxadiazolidines” (priority 1999, dated 2004)

Columns and labels:
pigweed = experiment: Test B pre/postemergence pigweed; type: in vivo, Amaranthus retroflexus
Procedure, shortened: (§1)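 Response is a visual 0-to-10 score relative to untreated plants, where 0 means no effect and 10 means complete control, taken twelve to sixteen days after application. Treatments went onto soil at planting and onto foliage of 1- to 4-leaf plants, using a surfactant-containing non-phytotoxic solvent.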

wheat = experiment: Test B pre/postemergence wheat; type: in vivo, Triticum aestivum
Procedure, shortened: as §1

crabgrass = experiment: Test B pre/postemergence crabgrass; type: in vivo, Digitaria sanguinalis
Procedure, shortened: as §1

blackgrass = experiment: Test B pre/postemergence blackgrass; type: in vivo, Alopecurus myosuroides
Procedure, shortened: as §1

wild oat = experiment: Test B pre/postemergence wild oat; type: in vivo, Avena fatua
Procedure, shortened: as §1

purple nutsedge = experiment: Test B pre/postemergence purple nutsedge; type: in vivo, Cyperus rotundus
Procedure, shortened: as §1

corn = experiment: Test B pre/postemergence corn; type: in vivo, Zea mays
Procedure, shortened: as §1

sugar beet = experiment: Test B pre/postemergence sugar beet; type: in vivo, Beta vulgaris
Procedure, shortened: as §1

soybean = experiment: Test B pre/postemergence soybean; type: in vivo, Glycine max
Procedure, shortened: as §1

surinam grass = experiment: Test B pre/postemergence surinam grass; type: in vivo, Brachiaria decumbens
Procedure, shortened: as §1

cocklebur = experiment: Test B pre/postemergence cocklebur; type: in vivo, Xanthium strumarium
Procedure, shortened: as §1

velvetleaf = experiment: Test B pre/postemergence velvetleaf; type: in vivo, Abutilon theophrasti
Procedure, shortened: as §1

rape = experiment: Test B pre/postemergence rape; type: in vivo, Brassica napus
Procedure, shortened: as §1

morningglory = experiment: Test B pre/postemergence morningglory; type: in vivo, Ipomoea hederacea
Procedure, shortened: as §1

bedstraw = experiment: Test B pre/postemergence bedstraw; type: in vivo, Galium aparine
Procedure, shortened: as §1

giant foxtail = experiment: Test B pre/postemergence giant foxtail; type: in vivo, Setaria faberii
Procedure, shortened: as §1

[1] = Postemergence, Rate 62 g/ha, scale 0 to 10, 0 is no effect, 10 is complete control
[2] = Postemergence, Rate 125 g/ha, scale of 0 to 10 where 0 is no effect and 10 is complete control
[3] = Preemergence, Rate 62 g/ha, scale of 0 to 10 where 0 is no effect and 10 is complete control
[4] = Preemergence, Rate 125 g/ha, scale of 0 to 10 where 0 is no effect and 10 is complete control
[5] = Preemergence, Rate 250 g/ha, scale 0 (no effect) to 10 (complete control)
[6] = Rate 250 g/ha, Postemergence, scale 0 to 10, 0 is no effect, 10 is complete control
[7] = Rate 500 g/ha, Postemergence, scale 0 to 10, 0 is no effect, 10 is complete control
[8] = Preemergence, Rate 500 g/ha, scale of 0 to 10 where 0 is no effect and 10 is complete control

Compound: CC(C)N(C(=O)n1oc(=O)n(C[C@H](C)Cl)c1=O)c1ccc(F)cc1F [Compound 714]
- Plant response rating, Redroot pigweed (pigweed; [1]): 5
- Redroot pigweed plant response rating (pigweed; [2]): 8
- Redroot pigweed plant response rating (pigweed; [3]): 10
- Plant response rating, Redroot pigweed (pigweed; [4]): 9
- Redroot pigweed plant response rating (pigweed; [5]): 10
- Redroot pigweed plant response rating (pigweed; [6]): 9
- Redroot pigweed plant response rating (pigweed; [7]): 9
- Plant response rating, Wheat (wheat; [1]): 0
- Wheat plant response rating (wheat; [2]): 0
- Wheat plant response rating (wheat; [3]): 0
- Plant response rating, Wheat (wheat; [4]): 4
- Wheat plant response rating (wheat; [5]): 6
- Wheat plant response rating (wheat; [6]): 3
- Wheat plant response rating (wheat; [7]): 6
- Plant response rating, Crabgrass (crabgrass; [1]): 4
- Crabgrass plant response rating (crabgrass; [2]): 9
- Crabgrass plant response rating (crabgrass; [3]): 10
- Plant response rating, Crabgrass (crabgrass; [4]): 10
- Crabgrass plant response rating (crabgrass; [5]): 10
- Crabgrass plant response rating (crabgrass; [6]): 9
- Crabgrass plant response rating (crabgrass; [7]): 9
- Plant response rating, Blackgrass (blackgrass; [1]): 7
- Blackgrass plant response rating (blackgrass; [2]): 7
- Blackgrass plant response rating (blackgrass; [3]): 7
- Plant response rating, Blackgrass (blackgrass; [4]): 8
- Blackgrass plant response rating (blackgrass; [5]): 9
- Plant response rating, Blackgrass (blackgrass; [8]): 9
- Blackgrass plant response rating (blackgrass; [6]): 6
- Blackgrass plant response rating (blackgrass; [7]): 7
- Plant response rating, Wild oats (wild oat; [1]): 0
- Wild oats plant response rating (wild oat; [2]): 0
- Wild oats plant response rating (wild oat; [3]): 0
- Plant response rating, Wild oats (wild oat; [4]): 4
- Wild oats plant response rating (wild oat; [5]): 6
- Wild oats plant response rating (wild oat; [6]): 4
- Wild oats plant response rating (wild oat; [7]): 9
- Plant response rating, Nutsedge (purple nutsedge; [1]): 0
- Nutsedge plant response rating (purple nutsedge; [2]): 0
- Nutsedge plant response rating (purple nutsedge; [3]): 0
- Plant response rating, Nutsedge (purple nutsedge; [4]): 0
- Nutsedge plant response rating (purple nutsedge; [5]): 0
- Nutsedge plant response rating (purple nutsedge; [6]): 5
- Nutsedge plant response rating (purple nutsedge; [7]): 5
- Plant response rating, Corn (corn; [1]): 0
- Corn plant response rating (corn; [2]): 0
- Corn plant response rating (corn; [3]): 0
- Plant response rating, Corn (corn; [4]): 0
- Corn plant response rating (corn; [5]): 5
- Corn plant response rating (corn; [6]): 0
- Corn plant response rating (corn; [7]): 0
- Plant response rating, Sugarbeets (sugar beet; [1]): 0
- Sugarbeets plant response rating (sugar beet; [2]): 6
- Sugarbeets plant response rating (sugar beet; [3]): 2
- Plant response rating, Sugarbeets (sugar beet; [4]): 4
- Sugarbeets plant response rating (sugar beet; [5]): 4
- Sugarbeets plant response rating (sugar beet; [6]): 7
- Sugarbeets plant response rating (sugar beet; [7]): 7
- Plant response rating, Soybean (soybean; [1]): 2
- Soybean plant response rating (soybean; [2]): 4
- Soybean plant response rating (soybean; [3]): 0
- Plant response rating, Soybean (soybean; [4]): 0
- Soybean plant response rating (soybean; [5]): 0
- Soybean plant response rating (soybean; [6]): 4
- Soybean plant response rating (soybean; [7]): 3
- Plant response rating, B. signalgrass (surinam grass; [1]): 2
- B. signalgrass plant response rating (surinam grass; [2]): 2
- B. signalgrass plant response rating (surinam grass; [3]): 7
- Plant response rating, B. signalgrass (surinam grass; [4]): 9
- B. signalgrass plant response rating (surinam grass; [5]): 10
- Plant response rating, B. signalgrass (surinam grass; [8]): 10
- B. signalgrass plant response rating (surinam grass; [6]): 6
- B. signalgrass plant response rating (surinam grass; [7]): 6
- Plant response rating, Cocklebur (cocklebur; [1]): 0
- Cocklebur plant response rating (cocklebur; [2]): 2
- Cocklebur plant response rating (cocklebur; [3]): 0
- Plant response rating, Cocklebur (cocklebur; [4]): 0
- Cocklebur plant response rating (cocklebur; [5]): 0
- Plant response rating, Cocklebur (cocklebur; [8]): 0
- Cocklebur plant response rating (cocklebur; [6]): 2
- Cocklebur plant response rating (cocklebur; [7]): 3
- Plant response rating, Velvetleaf (velvetleaf; [1]): 2
- Velvetleaf plant response rating (velvetleaf; [2]): 2
- Velvetleaf plant response rating (velvetleaf; [3]): 6
- Plant response rating, Velvetleaf (velvetleaf; [4]): 5
- Velvetleaf plant response rating (velvetleaf; [5]): 2
- Velvetleaf plant response rating (velvetleaf; [6]): 2
- Velvetleaf plant response rating (velvetleaf; [7]): 3
- Plant response rating, Rape (rape; [1]): 5
- Rape plant response rating (rape; [2]): 5
- Rape plant response rating (rape; [3]): 2
- Plant response rating, Rape (rape; [4]): 3
- Rape plant response rating (rape; [5]): 6
- Rape plant response rating (rape; [6]): 8
- Rape plant response rating (rape; [7]): 9
- Plant response rating, Morningglory (morningglory; [1]): 0
- Morningglory plant response rating (morningglory; [3]): 0
- Plant response rating, Morningglory (morningglory; [4]): 2
- Morningglory plant response rating (morningglory; [5]): 0
- Morningglory plant response rating (morningglory; [6]): 2
- Morningglory plant response rating (morningglory; [7]): 2
- Bedstraw plant response rating (bedstraw; [2]): 3
- Bedstraw plant response rating (bedstraw; [3]): 0
- Plant response rating, Bedstraw (bedstraw; [4]): 8
- Bedstraw plant response rating (bedstraw; [5]): 9
- Plant response rating, Giant foxtail (giant foxtail; [1]): 6
- Giant foxtail plant response rating (giant foxtail; [2]): 6
- Giant foxtail plant response rating (giant foxtail; [3]): 10
- Plant response rating, Giant foxtail (giant foxtail; [4]): 10
- Giant foxtail plant response rating (giant foxtail; [5]): 10
- Giant foxtail plant response rating (giant foxtail; [6]): 7
- Giant foxtail plant response rating (giant foxtail; [7]): 8
